Measured values taken from US11420961B2, “Heterocyclic compounds” (Hoffmann-La Roche Inc., priority 2017, dated 2022).

Target: T1, MAGL (recombinant wild-type) (Homo sapiens, UniProt Q99685)
T1 sequence (Q99685 1-303): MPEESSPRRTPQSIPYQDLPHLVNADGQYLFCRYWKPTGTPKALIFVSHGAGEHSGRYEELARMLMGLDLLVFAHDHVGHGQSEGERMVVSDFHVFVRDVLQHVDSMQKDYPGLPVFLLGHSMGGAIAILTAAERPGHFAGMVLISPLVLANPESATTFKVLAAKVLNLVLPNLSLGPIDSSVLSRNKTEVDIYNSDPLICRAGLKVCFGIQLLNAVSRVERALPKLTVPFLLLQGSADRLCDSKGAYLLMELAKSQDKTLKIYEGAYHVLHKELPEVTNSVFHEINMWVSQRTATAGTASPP
Experiment: 4-NPA assay: MAGL inhibitory activity by hydrolysis of 4-nitrophenylacetate, absorbance at 405 nm
Assay type: biochemical
Details: 4-NPA assay (values without footnote [a])
Method: Compounds were profiled for MAGL inhibitory activity by measuring the enzymatic activity of MAGL by following the hydrolysis of 4-nitorphenylacetate resulting in 4-nitrophenol, which absorbs at 405-412 nm (G. G. Muccioli, G. Labar, D M. Lambert, Chem. Bio. Chem. 2008, 9, 2704-2710). This assay is hereinafter abbreviated “4-NPA assay”.
The 4-NPA assay was carried out in 384 well assay plates (black with clear bottom, non-binding surface treated, Corning Ref. 3655) in a total volume of 40 μL. Compound dilutions were made in 100% DMSO (VWR Chemicals 23500.297) in a polypropylene plate in 3-fold dilution steps to give a final concentration range in the assay from 25 μM to 1.7 nM. 1 μL compound dilutions (100% DMSO) were added to 19 μL MAGL (recombinant wild-type) in assay buffer (50 mM TRIS (GIBCO, 15567-027), 1 mM EDTA (Fluka, 03690-100 ml)). The plate was shaked for 1 min at 2000 rpm (Variomag Teleshake) and then incubated for 15 min at RT. To start the reaction, 20 μL 4-Nitrophenlyacetate (Sigma N-8130) in assay buffer with 6% EtOH was added. The final concentrations in the assay were 1 nM MAGL and 300 μM 4-Nitrophenylacetate. After shaking (1 min, 2000 rpm) and 5 min incubation at RT, the absorbance at 405 nm was measured for a first time (Molecular Devices, SpectraMax Paradigm). A second measurement was then done after incubation for 80 min at RT. From the two measurements, the slope was calculated by substracting the first from the second measurement.

IC50	SMILES
1900 nM	COc1cc(OC)cc(N2CCN(C(=O)c3ccc4c(c3)NC(=O)CO4)CC2)c1 [Example 89, 6-[4-(3,5-dimethoxyphenyl)piperazine-1-carbonyl]-4H-1,4-benzoxazin-3-one]
2.03 nM	O=C1COc2ccc(C(=O)N3CCC(C(c4ccc(F)cc4)c4ccc(F)cc4)CC3)cc2N1 [Example 3, 6-[4-[Bis(4-fluorophenyl)methyl]piperidine-1-carbonyl]-4H-1,4-benzoxazin-3-one]
4 nM	O=C1COc2ccc(C(=O)N3CCC(C(c4ccc(F)cc4)c4ccc(F)nc4)CC3)cc2N1 (single isomer, unassigned) [Example 114, 6-[4-[(S or R)-(4-Fluorophenyl)-(6-fluoro-3-pyridyl)methyl]piperidine-1-carbonyl]-4H-1,4-benzoxazin-3-one]
0.9 nM	O=C1COc2ccc(C(=O)N3CCC([C@H](c4ccccc4)c4ccc(F)cc4)CC3)cc2N1 (single isomer, unassigned) [Example 7]
7.9 nM	O=C1CCc2c(cc(C(=O)N3CCC(C(c4ccc(F)cc4)c4ccc(F)cc4)CC3)cc2OCCF)N1 [Example 106, 7-[4-[Bis(4-fluorophenyl)methyl]piperidine-1-carbonyl]-5-(2-fluoroethoxy)-3,4-dihydro-1H-quinolin-2-one]
7.4 nM	O=C1COc2ccc(C(=O)N3CCC(C(c4ccccc4)c4ccc(OCCOCCF)cc4)CC3)cc2N1 (single isomer, unassigned) [Example 97, 6-[4-[(R or S)-[4-[2-(2-Fluoroethoxy)ethoxy]phenyl]-phenyl-methyl]piperidine-1-carbonyl]-4H-1,4-benzoxazin-3-one]
0.2 nM	Cc1cccc([C@@H](c2ccccc2)C2CCN(C(=O)c3ccc4c(c3)NC(=O)CO4)CC2)c1 (single isomer, unassigned) [Example 17]
0.53 nM	O=C1COc2ccc(C(=O)N3CCC([C@H](c4ccc(F)cc4)c4cccc(OCCF)c4)CC3)cc2N1 [Example 76, 6-[4-[(R)-[3-(2-fluoroethoxy)phenyl]-(4-fluorophenyl)methyl]piperidine-1-carbonyl]-4H-1,4-benzoxazin-3-one]
0.3 nM	COc1ccc([C@@H](c2ccccc2)C2CCN(C(=O)c3ccc4c(c3)NC(=O)CO4)CC2)cc1OC (single isomer, unassigned) [Example 9]
370 nM	O=C1COc2ccc(C(=O)N3CCC(c4noc5cc(F)ccc45)CC3)cc2N1 [Example 51, 6-[4-(6-fluoro-1,2-benzoxazol-3-yl)piperidine-1-carbonyl]-4H-1,4-benzoxazin-3-one]
7.3 nM	O=C1COc2ccc(C(=O)N3CCC(C4(c5ccc(Br)cc5)OCCO4)CC3)cc2N1 [Example 54, 6-[4-[2-(4-bromophenyl)-1,3-dioxolan-2-yl]piperidine-1-carbonyl]-4H-1,4-benzoxazin-3-one]
0.95 nM	O=C1COc2cc(F)c(C(=O)N3CCC(C(c4ccccc4)c4ccccc4)CC3)cc2N1 [Example 1, 6-(4-Benzhydrylpiperidine-1-carbonyl)-7-fluoro-4H-1,4-benzoxazin-3-one]
33 nM	O=C1COc2ccc(C(=O)N3CCC(c4c[nH]c5ccccc45)CC3)cc2N1 [Example 18, 6-[4-(1H-indol-3-yl)piperidine-1-carbonyl]-4H-1,4-benzoxazin-3-one]
86 nM	CC(C)n1nc(C2CCN(C(=O)c3ccc4c(c3)NC(=O)CO4)CC2)c2ccc(F)cc21 [Example 38, 6-[4-(6-fluoro-1-propan-2-ylindazol-3-yl)piperidine-1-carbonyl]-4H-1,4-benzoxazin-3-one]
22.9 nM	Cn1cc(C2CCN(C(=O)c3ccc4c(c3)NC(=O)CO4)CC2)c2ccc(Cl)cc21 [Example 30, 6-[4-(6-chloro-1-methylindol-3-yl)piperidine-1-carbonyl]-4H-1,4-benzoxazin-3-one]
1.5 nM	O=C1COc2ccc(C(=O)N3CCC(C(c4ccc(F)cc4)c4ccnc(F)c4)CC3)cc2N1 (single isomer, unassigned) [Example 111, 6-[4-[(R or S)-(4-Fluorophenyl)-(2-fluoro-4-pyridyl)methyl]piperidine-1-carbonyl]-4H-1,4-benzoxazin-3-one]
180 nM	O=C1COc2ccc(C(=O)N3CCC(c4n[nH]c5cc(F)ccc45)CC3)cc2N1 [Example 43, 6-[4-(6-fluoro-1H-indazol-3-yl)piperidine-1-carbonyl]-4H-1,4-benzoxazin-3-one]
3.5 nM	O=C1COc2ccc(C(=O)N3CCC(=C(c4ccc(F)cc4)c4ccc(OCCF)cc4)CC3)cc2N1 [Example 93, 6-[4-[[4-(2-Fluoroethoxy)phenyl]-(4-fluorophenyl)methylene]piperidine-1-carbonyl]-4H-1,4-benzoxazin-3-one]

The next lines start with the molecule.

SMILES	IC50
O=C1COc2ccc(C(=O)N3CCN(c4ccc(Cl)c(C(F)(F)F)c4)CC3)cc2N1 [Example 85, 6-[4-[4-chloro-3-(trifluoromethyl)phenyl]piperazine-1-carbonyl]-4H-1,4-benzoxazin-3-one]	497 nM
O=C1COc2ccc(C(=O)N3CCC(C(c4ccccc4)c4cccc(F)n4)CC3)cc2N1 (single isomer, unassigned) [Example 98, 6-[4-[(S or R)-(6-Fluoro-2-pyridyl)-phenyl-methyl]piperidine-1-carbonyl]-4H-1,4-benzoxazin-3-one]	1.8 nM
O=C1COc2ccc(C(=O)N3CCC(c4c[nH]c5cc(F)ccc45)CC3)cc2N1 [Example 23, 6-[4-(6-fluoro-1H-indol-3-yl)piperidine-1-carbonyl]-4H-1,4-benzoxazin-3-one]	10.6 nM
O=C1COc2ccc(C(=O)N3CCC(n4cnc5ccccc54)CC3)cc2N1 [Example 49, 6-[4-(benzimidazol-1-yl)piperidine-1-carbonyl]-4H-1,4-benzoxazin-3-one]	5540 nM
O=C1COc2ccc(C(=O)N3CCC(c4c[nH]c5cc(Cl)ccc45)CC3)cc2N1 [Example 21, 6-[4-(6-chloro-1H-indol-3-yl)piperidine-1-carbonyl]-4H-1,4-benzoxazin-3-one]	14 nM
O=C1COc2ccc(C(=O)N3CCC(c4cc5ccccc5[nH]4)CC3)cc2N1 [Example 40, 6-[4-(1H-indol-2-yl)piperidine-1-carbonyl]-4H-1,4-benzoxazin-3-one]	550 nM
O=C1COc2ccc(C(=O)N3CCC(c4cn(Cc5cccc(Cl)c5)c5ccccc45)CC3)cc2N1 [Example 35, 6-[4-[l-[(3-chlorophenyl)methyl]indol-3-yl]piperidine-1-carbonyl]-4H-1,4-benzoxazin-3-one]	37 nM
O=C1COc2ccc(C(=O)N3CCC([C@@H](c4ccccc4)c4cccc(F)c4)CC3)cc2N1 [Example 74, 6-[4-[(S)-(3-fluorophenyl)-phenyl-methyl]piperidine-1-carbonyl]-4H-1,4-benzoxazin-3-one]	0.56 nM
Cc1ccc([C@H](c2ccccc2)C2CCN(C(=O)c3ccc4c(c3)NC(=O)CO4)CC2)cc1 (single isomer, unassigned) [Example 14]	0.5 nM
COc1ccc([C@H](c2ccccc2)C2CCN(C(=O)c3ccc4c(c3)NC(=O)CO4)CC2)cc1 (single isomer, unassigned) [Example 10]	1.9 nM
O=C1COc2ccc(C(=O)N3CCC([C@H](c4ccccc4)c4cccc(OCCOCCF)c4)CC3)cc2N1 [Example 66, 6-[4-[(R)-[3-[2-(2-fluoroethoxy)ethoxy]phenyl]-phenyl-methyl]piperidine-1-carbonyl]-4H-1,4-benzoxazin-3-one]	0.24 nM
O=C1COc2ccc(C(=O)N3CCC(C(c4ccc(F)cc4)c4cccc(F)n4)CC3)cc2N1 (single isomer, unassigned) [Example 119, 6-[4-[(R or S)-(4-Fluorophenyl)-(6-fluoro-2-pyridyl)methyl]piperidine-1-carbonyl]-4H-1,4-benzoxazin-3-one]	9.1 nM
O=C1COc2ccc(C(=O)N3CCC(c4noc5cc(C(F)(F)F)ccc45)CC3)cc2N1 [Example 50, 6-[4-[6-(trifluoromethyl)-1,2-benzoxazol-3-yl]piperidine-1-carbonyl]-4H-1,4-benzoxazin-3-one]	150 nM
O=C1COc2ccc(C(=O)N3CCC([C@H](c4ccccc4)c4cccc(F)c4)CC3)cc2N1 [Example 75, 6-[4-[(R)-(3-fluorophenyl)-phenyl-methyl]piperidine-1-carbonyl]-4H-1,4-benzoxazin-3-one]	0.43 nM
O=C1COc2ccc(C(=O)N3CCC(c4nnc(-c5ccccc5)o4)CC3)cc2N1 [Example 48, 6-[4-(5-phenyl-1,3,4-oxadiazol-2-yl)piperidine-1-carbonyl]-4H-1,4-benzoxazin-3-one]	549 nM
